Reference: patent US4404230A, “4-Hydroxy-1,2-Benzisothiazol-3(2H)-one-1,1-dioxides and salts thereof” (priority 1980, dated 1983)

Tests used:
rats = assay: Test for subacute toxicity in the rat; assay type: in vivo, Chbb:Thom-rats; conditions: 750 mg/kg daily, 5 weeks
Method: The test was carried out on 10 male and 10 female Chbb:Thom-rats. During a period of 5 weeks 750 mg/kg of substance B were administered to the animals daily. […] After the 5 weeks the animals were killed, and the following organs were dissected for histological examination: heart, lungs, liver, spleen, suprarenals, brain, kidney and pancreas.

beagles = assay: Test for subacute toxicity in the dog; conditions: in vivo
Method: The test was carried out in each 3 male and 3 female beagles. Over a period of 5 weeks 750 mg/kg of substance B were administered orally.
After the test period of 5 weeks the animals were killed and the same organs as above were taken for histological examination.

## O=C1NS(=O)(=O)c2cccc(O)c21.[Na]
rats
  behavior: normal behavior
  spontaneous deaths: No spontaneous deaths could be observed
rats; heart, lungs, liver, spleen, suprarenals, brain, kidney, pancreas
  histological examination of organs: did not show any pathological findings
beagles
  behavior: did not show any abnormal behavior
  histological examination of organs: No changes could be observed
  spontaneous deaths: Spontaneous deaths could not be observed
